The record followed here is ChEMBL document CHEMBL1156029, “The discovery of thienopyridine analogues as potent IkappaB kinase beta inhibitors. Part II” (Bioorg Med Chem Lett, 2009).

Calls of active or inactive are those of the source. The rule behind the calls is not given here.

In data set [1] the target is Ribosomal protein S6 kinase alpha-5 (Homo sapiens) (UniProt O75582). Description: Inhibition of MSK1 at 10 uM.
The test system of data set [2] is Mus musculus. Description: Inhibition of LPS-induced TNFalpha production in mouse at 10 mg/kg, po administered 60 mins before LPS challenge. Type of data set: functional.
For data set [3], the target named is T1, Tyrosine-protein kinase ITK/TSK (Homo sapiens, UniProt Q08881).
T1 sequence (Q08881 whole entry): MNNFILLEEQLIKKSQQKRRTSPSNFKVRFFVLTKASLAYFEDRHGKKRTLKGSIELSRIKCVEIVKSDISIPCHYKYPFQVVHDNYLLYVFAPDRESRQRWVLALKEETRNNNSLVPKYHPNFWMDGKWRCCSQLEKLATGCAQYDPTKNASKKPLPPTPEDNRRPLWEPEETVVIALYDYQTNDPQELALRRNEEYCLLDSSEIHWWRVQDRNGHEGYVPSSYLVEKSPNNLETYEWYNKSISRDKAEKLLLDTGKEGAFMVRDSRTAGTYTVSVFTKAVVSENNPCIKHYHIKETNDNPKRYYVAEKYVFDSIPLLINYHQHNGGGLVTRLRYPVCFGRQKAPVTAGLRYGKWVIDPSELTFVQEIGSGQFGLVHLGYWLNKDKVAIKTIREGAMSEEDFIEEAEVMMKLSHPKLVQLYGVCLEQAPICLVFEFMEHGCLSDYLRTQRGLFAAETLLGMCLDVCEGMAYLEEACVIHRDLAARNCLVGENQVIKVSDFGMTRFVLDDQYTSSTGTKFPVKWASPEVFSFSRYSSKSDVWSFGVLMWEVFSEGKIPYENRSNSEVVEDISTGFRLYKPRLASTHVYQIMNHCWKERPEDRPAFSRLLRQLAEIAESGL
Description: Inhibition of Itk.

The target in data set [4] is Fibroblast growth factor receptor 3 (Homo sapiens, UniProt P22607). As to the kind of experiment: Inhibition of FGFR3.
The target in data set [5] is Casein kinase I isoform alpha (Homo sapiens) (UniProt P48729). Description: Inhibition of CK1 at 10 uM.
The nature of data set [6]: Inhibition of PP2a at 10 uM.
Data set [7] is described as follows: Inhibition of PHOS Kinase at 10 uM.
Data set [8] concerns the target Rho-associated protein kinase 2 (Homo sapiens) (UniProt O75116). Description: Inhibition of ROCK-2 at 10 uM.
In data set [9] the target is High affinity nerve growth factor receptor (Homo sapiens, UniProt P04629). Description: Inhibition of TrkA.
Data set [10] addresses Insulin receptor (Homo sapiens, UniProt P06213). Description: Inhibition of IR.
Data set [11] has as its system Blood. Description: Inhibition of LPS-induced TNFalpha production in human whole blood. Type of data set: functional, tissue-based.
Data set [12] can be described thus: Inhibition of AMPK at 10 uM.
Data set [13] concerns the target Tyrosine-protein kinase Lck (Homo sapiens) (UniProt P06239). As to the kind of experiment: Inhibition of Lck at 10 uM.
Data set [14] addresses Cyclin-dependent kinase 2/cyclin A (Homo sapiens) (UniProt P24941+P20248+P78396). Description: Inhibition of CDK2/cyclin A at 10 uM. Type of data set: protein-complex assay.
The target in data set [15] is Hepatocyte growth factor receptor (Homo sapiens, UniProt P08581). As to the kind of experiment: Inhibition of HGFR.
The nature of data set [16]: Inhibition of JNK/SAPK1c at 10 uM.
The target in data set [17] is Mitogen-activated protein kinase 11 (Homo sapiens) (UniProt Q15759). As to the kind of experiment: Inhibition of p38beta2 at 10 uM.
Data set [18] can be described thus: Plasma concentration in mouse at 100 mg/kg, po after 120 mins. In kind it is ADME, organism-based. Also on record: dose 100 mg/kg, route oral.
Data set [19] addresses T2, Serine/threonine-protein kinase Sgk1 (Homo sapiens) (UniProt O00141).
T2 sequence (whole entry): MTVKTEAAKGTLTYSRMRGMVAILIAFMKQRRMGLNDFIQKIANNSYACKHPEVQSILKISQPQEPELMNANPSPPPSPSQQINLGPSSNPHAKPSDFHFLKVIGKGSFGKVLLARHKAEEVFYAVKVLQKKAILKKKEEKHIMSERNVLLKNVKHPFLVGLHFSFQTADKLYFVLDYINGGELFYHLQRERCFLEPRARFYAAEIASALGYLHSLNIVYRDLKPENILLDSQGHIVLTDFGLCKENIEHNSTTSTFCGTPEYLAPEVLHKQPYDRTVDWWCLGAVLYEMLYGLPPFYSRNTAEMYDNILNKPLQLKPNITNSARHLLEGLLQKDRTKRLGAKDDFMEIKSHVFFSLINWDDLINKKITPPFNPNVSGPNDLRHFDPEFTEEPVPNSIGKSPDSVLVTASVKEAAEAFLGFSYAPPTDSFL
As to the kind of experiment: Inhibition of SGK at 10 uM.

The target in data set [20] is T3, Inhibitor of nuclear factor kappa-B kinase subunit alpha (Homo sapiens, UniProt O15111).
T3 sequence (O15111 whole entry): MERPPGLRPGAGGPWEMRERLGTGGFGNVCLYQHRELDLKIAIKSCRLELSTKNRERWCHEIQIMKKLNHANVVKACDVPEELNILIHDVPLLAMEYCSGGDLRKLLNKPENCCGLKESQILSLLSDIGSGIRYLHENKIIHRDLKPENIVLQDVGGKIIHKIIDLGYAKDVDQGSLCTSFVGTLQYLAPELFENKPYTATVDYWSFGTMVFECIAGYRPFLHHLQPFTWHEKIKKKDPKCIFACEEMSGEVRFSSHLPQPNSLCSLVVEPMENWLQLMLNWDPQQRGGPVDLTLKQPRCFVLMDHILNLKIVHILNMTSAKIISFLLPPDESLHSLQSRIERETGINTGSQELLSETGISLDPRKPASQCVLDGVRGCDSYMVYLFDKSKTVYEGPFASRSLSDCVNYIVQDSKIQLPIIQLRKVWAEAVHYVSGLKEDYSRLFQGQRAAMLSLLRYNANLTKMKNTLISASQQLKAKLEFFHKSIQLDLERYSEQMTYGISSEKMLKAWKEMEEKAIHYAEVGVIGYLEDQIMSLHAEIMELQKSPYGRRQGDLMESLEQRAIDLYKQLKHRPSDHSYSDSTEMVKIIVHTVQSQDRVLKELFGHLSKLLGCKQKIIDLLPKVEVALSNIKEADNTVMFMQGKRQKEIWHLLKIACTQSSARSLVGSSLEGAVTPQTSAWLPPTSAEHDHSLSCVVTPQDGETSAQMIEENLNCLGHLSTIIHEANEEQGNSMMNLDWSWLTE
Description: Inhibition of IKKalpha.

The target in data set [21] is Vascular endothelial growth factor receptor 1 (Homo sapiens, UniProt P17948). Description: Inhibition of VEGFR1.
Data set [22] deals with Tyrosine-protein kinase SYK (Homo sapiens, UniProt P43405). Description: Inhibition of Syk.

Chain of Tyrosine-protein kinase Lck (Homo sapiens) (P06239 2-509 limits assumed): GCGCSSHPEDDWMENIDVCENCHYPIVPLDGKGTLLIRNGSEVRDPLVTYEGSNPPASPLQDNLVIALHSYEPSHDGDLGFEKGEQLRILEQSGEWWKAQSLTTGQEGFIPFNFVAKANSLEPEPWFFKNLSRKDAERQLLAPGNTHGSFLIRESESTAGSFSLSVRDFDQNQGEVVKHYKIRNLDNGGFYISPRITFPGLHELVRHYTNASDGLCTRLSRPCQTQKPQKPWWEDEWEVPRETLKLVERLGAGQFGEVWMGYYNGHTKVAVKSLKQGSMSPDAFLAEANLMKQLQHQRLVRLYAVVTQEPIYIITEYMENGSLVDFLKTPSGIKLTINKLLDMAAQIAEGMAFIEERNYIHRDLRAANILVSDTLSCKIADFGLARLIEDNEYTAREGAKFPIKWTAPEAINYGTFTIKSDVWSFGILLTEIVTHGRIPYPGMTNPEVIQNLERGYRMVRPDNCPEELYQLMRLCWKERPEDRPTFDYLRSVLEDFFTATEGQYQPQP
Chain of Rho-associated protein kinase 2 (Homo sapiens) (O75116 whole entry, looked up): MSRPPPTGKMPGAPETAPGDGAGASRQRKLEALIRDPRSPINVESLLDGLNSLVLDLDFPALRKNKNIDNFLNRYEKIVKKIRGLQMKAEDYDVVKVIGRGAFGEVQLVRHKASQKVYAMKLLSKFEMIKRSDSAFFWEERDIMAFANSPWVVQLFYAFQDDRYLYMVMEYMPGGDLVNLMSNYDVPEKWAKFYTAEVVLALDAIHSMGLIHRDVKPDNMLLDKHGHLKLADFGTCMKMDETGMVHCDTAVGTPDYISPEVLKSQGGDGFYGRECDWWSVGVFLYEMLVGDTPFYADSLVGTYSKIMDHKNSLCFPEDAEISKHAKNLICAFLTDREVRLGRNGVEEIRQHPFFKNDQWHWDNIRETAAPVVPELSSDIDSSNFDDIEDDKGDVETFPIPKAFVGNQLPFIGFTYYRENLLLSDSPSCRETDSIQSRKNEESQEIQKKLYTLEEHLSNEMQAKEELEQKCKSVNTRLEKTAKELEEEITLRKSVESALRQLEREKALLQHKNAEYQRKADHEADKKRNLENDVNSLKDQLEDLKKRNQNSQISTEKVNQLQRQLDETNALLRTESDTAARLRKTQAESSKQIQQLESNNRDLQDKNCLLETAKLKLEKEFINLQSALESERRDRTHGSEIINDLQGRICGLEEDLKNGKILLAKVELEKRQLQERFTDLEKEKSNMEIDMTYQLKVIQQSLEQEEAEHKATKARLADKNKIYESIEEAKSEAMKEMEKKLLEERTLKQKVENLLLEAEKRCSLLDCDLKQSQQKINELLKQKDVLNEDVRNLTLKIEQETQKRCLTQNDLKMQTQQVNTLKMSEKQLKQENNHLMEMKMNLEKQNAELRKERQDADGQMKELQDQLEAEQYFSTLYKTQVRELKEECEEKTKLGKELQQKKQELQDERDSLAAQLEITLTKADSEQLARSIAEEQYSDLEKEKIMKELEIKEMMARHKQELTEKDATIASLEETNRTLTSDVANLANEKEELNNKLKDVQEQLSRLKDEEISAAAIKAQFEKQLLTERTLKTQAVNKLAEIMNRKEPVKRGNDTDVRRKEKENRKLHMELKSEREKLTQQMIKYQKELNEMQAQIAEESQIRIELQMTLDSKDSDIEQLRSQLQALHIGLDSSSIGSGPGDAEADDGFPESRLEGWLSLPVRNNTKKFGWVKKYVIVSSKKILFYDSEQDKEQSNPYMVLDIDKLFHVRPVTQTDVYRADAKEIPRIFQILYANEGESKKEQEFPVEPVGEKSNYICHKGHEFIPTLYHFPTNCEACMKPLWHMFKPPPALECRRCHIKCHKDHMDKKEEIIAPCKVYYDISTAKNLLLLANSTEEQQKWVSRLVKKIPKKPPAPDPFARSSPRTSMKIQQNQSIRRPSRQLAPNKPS
Chain of Mitogen-activated protein kinase 11 (Homo sapiens) (Q15759 whole entry): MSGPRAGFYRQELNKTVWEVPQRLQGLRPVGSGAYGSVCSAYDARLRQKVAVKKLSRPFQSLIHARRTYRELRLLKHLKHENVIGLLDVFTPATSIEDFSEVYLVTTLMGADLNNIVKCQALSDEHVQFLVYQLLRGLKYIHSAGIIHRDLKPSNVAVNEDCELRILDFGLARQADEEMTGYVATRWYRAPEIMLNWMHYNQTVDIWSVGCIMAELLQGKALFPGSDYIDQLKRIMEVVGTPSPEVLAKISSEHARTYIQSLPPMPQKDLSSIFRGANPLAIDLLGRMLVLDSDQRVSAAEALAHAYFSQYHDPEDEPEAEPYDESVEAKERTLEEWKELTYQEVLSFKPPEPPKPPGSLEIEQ
Chain of High affinity nerve growth factor receptor (P04629 whole entry): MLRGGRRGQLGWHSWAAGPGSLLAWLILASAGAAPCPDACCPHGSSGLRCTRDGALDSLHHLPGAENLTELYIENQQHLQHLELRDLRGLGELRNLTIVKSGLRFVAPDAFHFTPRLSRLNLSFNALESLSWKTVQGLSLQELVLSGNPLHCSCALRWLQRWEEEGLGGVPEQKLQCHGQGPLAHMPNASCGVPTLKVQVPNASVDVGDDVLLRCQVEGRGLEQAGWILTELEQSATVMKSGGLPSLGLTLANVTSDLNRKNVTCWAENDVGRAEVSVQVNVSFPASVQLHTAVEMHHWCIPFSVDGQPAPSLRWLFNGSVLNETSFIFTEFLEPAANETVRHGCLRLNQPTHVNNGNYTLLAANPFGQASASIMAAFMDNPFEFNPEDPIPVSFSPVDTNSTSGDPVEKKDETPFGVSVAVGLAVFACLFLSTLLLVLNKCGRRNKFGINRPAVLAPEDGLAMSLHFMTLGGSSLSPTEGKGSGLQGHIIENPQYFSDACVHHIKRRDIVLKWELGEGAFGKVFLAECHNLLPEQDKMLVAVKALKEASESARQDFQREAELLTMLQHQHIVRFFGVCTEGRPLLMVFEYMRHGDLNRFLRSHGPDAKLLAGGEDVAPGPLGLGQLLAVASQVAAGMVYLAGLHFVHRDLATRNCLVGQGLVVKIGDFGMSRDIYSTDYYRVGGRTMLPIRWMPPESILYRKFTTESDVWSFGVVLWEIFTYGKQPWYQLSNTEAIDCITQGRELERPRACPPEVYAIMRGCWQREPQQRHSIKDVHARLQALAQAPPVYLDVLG
Chain of Hepatocyte growth factor receptor (P08581 whole entry): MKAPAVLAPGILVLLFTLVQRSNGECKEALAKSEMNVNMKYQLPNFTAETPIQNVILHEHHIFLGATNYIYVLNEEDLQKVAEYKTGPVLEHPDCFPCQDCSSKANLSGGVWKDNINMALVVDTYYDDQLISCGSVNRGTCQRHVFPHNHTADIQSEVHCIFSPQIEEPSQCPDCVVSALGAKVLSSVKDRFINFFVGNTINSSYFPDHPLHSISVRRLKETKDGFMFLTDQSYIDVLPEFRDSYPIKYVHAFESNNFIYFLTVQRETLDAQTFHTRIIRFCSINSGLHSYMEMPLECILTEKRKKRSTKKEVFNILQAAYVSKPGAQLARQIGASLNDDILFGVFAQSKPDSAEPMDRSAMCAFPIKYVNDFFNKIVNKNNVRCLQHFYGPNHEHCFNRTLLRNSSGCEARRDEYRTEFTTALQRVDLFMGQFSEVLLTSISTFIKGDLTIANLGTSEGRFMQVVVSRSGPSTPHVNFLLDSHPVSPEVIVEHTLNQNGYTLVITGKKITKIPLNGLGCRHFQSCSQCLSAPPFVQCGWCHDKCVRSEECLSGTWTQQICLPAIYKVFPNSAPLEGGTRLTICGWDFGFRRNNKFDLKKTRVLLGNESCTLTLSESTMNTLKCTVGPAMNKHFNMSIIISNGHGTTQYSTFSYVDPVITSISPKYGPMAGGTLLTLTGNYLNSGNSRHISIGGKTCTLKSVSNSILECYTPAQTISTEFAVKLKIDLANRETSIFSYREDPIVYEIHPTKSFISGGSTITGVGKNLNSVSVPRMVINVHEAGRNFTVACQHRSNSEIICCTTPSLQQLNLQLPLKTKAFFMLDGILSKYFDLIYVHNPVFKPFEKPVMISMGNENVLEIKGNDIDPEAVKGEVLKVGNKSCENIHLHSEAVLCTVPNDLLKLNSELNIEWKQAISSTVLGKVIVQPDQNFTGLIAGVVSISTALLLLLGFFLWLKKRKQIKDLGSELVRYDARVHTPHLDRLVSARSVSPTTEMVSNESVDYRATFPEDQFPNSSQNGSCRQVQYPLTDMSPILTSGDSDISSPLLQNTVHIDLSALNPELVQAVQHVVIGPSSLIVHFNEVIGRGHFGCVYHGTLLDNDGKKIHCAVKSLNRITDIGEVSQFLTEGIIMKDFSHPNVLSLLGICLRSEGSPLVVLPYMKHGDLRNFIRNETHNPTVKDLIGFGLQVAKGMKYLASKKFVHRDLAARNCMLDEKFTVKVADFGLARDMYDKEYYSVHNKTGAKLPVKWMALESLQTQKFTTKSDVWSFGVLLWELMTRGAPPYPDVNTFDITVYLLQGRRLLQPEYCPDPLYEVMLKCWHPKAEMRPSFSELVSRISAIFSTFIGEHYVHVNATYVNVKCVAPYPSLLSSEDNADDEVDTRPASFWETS
Chain of Casein kinase I isoform alpha (Homo sapiens) (P48729 2-337 limits assumed): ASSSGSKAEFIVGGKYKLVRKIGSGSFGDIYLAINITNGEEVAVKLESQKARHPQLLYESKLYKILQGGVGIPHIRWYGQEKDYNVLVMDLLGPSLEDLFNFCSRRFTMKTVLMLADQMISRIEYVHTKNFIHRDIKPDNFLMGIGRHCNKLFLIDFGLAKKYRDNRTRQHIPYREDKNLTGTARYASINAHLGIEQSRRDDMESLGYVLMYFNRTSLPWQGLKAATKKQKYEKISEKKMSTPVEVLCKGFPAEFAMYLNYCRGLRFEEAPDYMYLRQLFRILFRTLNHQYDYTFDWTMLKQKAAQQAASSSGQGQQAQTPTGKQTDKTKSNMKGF

Regarding `CCCc1cc(N2CCCC(O)C2)nc2sc(C(N)=O)c(N)c12` (centres undefined), the outcome in data set [1], in [5], in data set [6], in [7], in data set [8] and in data set [12] was inactive. Moreover, the outcome in [13], in [14], in data set [16], in [17] and in data set [19] was inactive. For the same molecule, 10 mg/kg produced 14% inhibition in vivo in data set [2]. The half-inhibitory concentration (IC50) (as a rule, the midpoint of a concentration-inhibition curve) was above 7 µM in data set [3]; above 7 µM in data set [4]; above 7 µM in data set [9]; above 7 µM in [10]; 13 µM in [11]; above 7 µM in data set [15]. For the same molecule, the figures for the half-inhibitory concentration (IC50) in data set [20] and in [21] were 13.3 µM and above 7 µM, respectively. In [18], this molecule showed a concentration at 2 h of 22.5 µM.
With `CCCc1cc(N2CCC(N)CC2)nc2sc(C(N)=O)c(N)c12`, the result in data set [1], in [5], in data set [6], in data set [7], in [8] and in data set [12] was inactive. Besides, the outcome in data set [13], in data set [14], in data set [16], in data set [17] and in data set [19] was inactive. Moreover, in data set [2], the inhibition in vivo (commonly how much of the control response was suppressed) at 10 mg/kg was found to be 17%. Also, the IC50 in [3] was above 7 µM; in data set [4], above 7 µM; in data set [9] it was above 7 µM; in data set [10], above 7 µM; in [11], 1.6 µM; in data set [22] it was above 7 µM. The IC50 in [20] was 0.09 µM; in [21], above 7 µM. In data set [18], this molecule came in with a concentration at 2 h of 2.8 µM.
Consider `CCCc1cc(N2CCC(O)CC2)nc2sc(C(N)=O)c(N)c12`, for which the outcome in [1], in [5], in data set [6], in data set [7], in data set [8] and in data set [12] was inactive. The result in [13], in data set [14], in data set [16], in data set [17] and in [19] was inactive. Further, the inhibition in vivo at 10 mg/kg in data set [2] stood at 42%. In addition, the half-inhibitory concentration (IC50) in data set [3] is above 7 µM; in data set [4], above 7 µM; in data set [10] it was above 7 µM; in data set [11], 9.8 µM; in data set [22] it was above 7 µM; in data set [15], above 7 µM. Besides, the results for the 50% inhibitory concentration (IC50) in data set [20] and in [21] were 11.2 µM and above 7 µM, respectively. Besides, in data set [18], the concentration at 2 h was determined as 42.3 µM.
As for `CCCc1cc(N2CCNCC2)nc2sc(C(N)=O)c(N)c12`, the result in data set [1], in data set [5], in data set [6], in [7], in data set [8] and in [12] was inactive. Besides, the outcome in data set [13], in data set [14], in data set [16], in data set [17] and in [19] was inactive. Also, the inhibition in vivo at 10 mg/kg in [2] amounted to 12%. For the same molecule, the IC50 is above 7 µM in [3]; above 7 µM in data set [4]; above 7 µM in [9]; 3.2 µM in [11]; above 7 µM in data set [22]; above 7 µM in data set [15]. Further, the half-maximal inhibitory concentration (IC50) in data set [20] was 3.4 µM; in data set [21] it was above 7 µM. In addition, in data set [18], the concentration at 2 h is 3.5 µM.
